Measured values: patent US20240025863A1, “SOS1 PROTEIN DEGRADERS, PHARMACEUTICAL COMPOSITIONS THEREOF, AND THEIR THERAPEUTIC APPLICATIONS” (BioTheryX, Inc., priority 2020, published 2024)

Key:
Format in all cases: cell-based
SW480 cells (G12V) = assay: Cell viability assay (CellTiter-Glo), SW480 cells; settings: Homo sapiens, 72 h; SW480 cells, 3 days incubation, CellTiter-Glo luminescence; read-out: Inhibition of Cancerous Cells IC50 SW480 (G12V)
Procedure, shortened: (§1)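 Luminescence readout (CellTiter-Glo, 10 min with shaking) after 3-day compound or DMSO exposure at 37 °C. H358/SW48 in RPMI 1640, Lovo/SW480 in DMEM, assay medium with 2.5% FBS; Lovo seeded at 4,000 or 1,000 cells/well versus 2,000 or 500 for others.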

AsPC-1 cells (G12D) = assay: Cell viability assay (CellTiter-Glo), AsPC-1 cells; settings: Homo sapiens, ASPC1, 72 h, 3 days incubation, CellTiter-Glo luminescence, read-out: Inhibition of Cancerous Cells IC50 AsPC-1 (G12D)
Procedure: H358, H23, SW48, and AsPC-1 cells were cultured in RPMI 1640 media supplemented with 10% fetal bovine serum, streptomycin, and penicillin. Lovo and SW480 cells were cultured in DMEM media supplemented with 10% fetal bovine serum, streptomycin, and penicillin. The cell lines were plated in their respective medium supplemented with 2.5% fetal bovine serum, streptomycin, and penicillin. All cell lines were plated in white walled 96-well plates at 2,000 cells/well or 384-well plates at 500 cells/well, except Lovo, which were plated at 4,000 or 1,000 cells/well, respectively. The cells were incubated in DMSO (control) or a compound for 3 days at 37° C. under 5% CO2. A CELLTITER-GLO® reagent (100 μL) was then added to each well. After a 10 min incubation with shaking, luminescence was measured using an ENVISION® multimode plate reader.

H358 cells (G12C) = assay: Cell viability assay (CellTiter-Glo), H358 cells; settings: Homo sapiens, NCI-H358, 72 h; H358 cells, 3 days incubation, CellTiter-Glo luminescence; read-out: Inhibition of Cancerous Cells IC50 H358 (G12C)
Procedure, shortened: as §1

SW48 cells (wt) = assay: Cell viability assay (CellTiter-Glo), SW48 cells; settings: Homo sapiens, 72 h; SW48 cells, 3 days incubation, CellTiter-Glo luminescence; read-out: Inhibition of Cancerous Cells IC50 SW48 (wt)
Procedure, shortened: as §1

Lovo cells (G13D) = assay: Cell viability assay (CellTiter-Glo), Lovo cells; settings: Homo sapiens, 72 h; Lovo cells, 3 days incubation, CellTiter-Glo luminescence; read-out: Inhibition of Cancerous Cells IC50 Lovo (G13D)
Procedure, shortened: as §1

Structure (SMILES)	IC50 (SW480 cells (G12V)) [nM]	IC50 (AsPC-1 cells (G12D)) [nM]	IC50 (H358 cells (G12C)) [nM]	IC50 (SW48 cells (wt)) [nM]	IC50 (Lovo cells (G13D)) [nM]
COc1cc2c(N[C@H](C)c3cccc(Br)c3)nc(C)nc2cc1OCCCCCCCOc1cc(-c2scnc2C)ccc1CNC(=O)[C@@H]1C[C@@H](O)CN1C(=O)[C@@H](NC(C)=O)C(C)(C)C [Compound D11, (2S,4R)-1-((S)-2-Acetamido-3,3-dimethylbutanoyl)-N-(2-((7-((4-(((R)-1-(3-bromophenyl)ethyl)amino)-6-methoxy-2-methylquinazolin-7-yl)oxy)heptyl)oxy)-4-(4-methylthiazol-5-yl)benzyl)-4-hydroxypyrrolidine-2-carboxamide]	1200	> 10000	1600	5900	2600
COc1cc2c(N[C@H](C)c3cccc(Br)c3)nc(C)nc2cc1OCCN1CCN(CCN2CCC(c3cc(F)cc4c3CN(C3CCC(=O)NC3=O)C4=O)CC2)CC1 (stereo partly drawn) [Compound A66, 3-(4-(1-(2-(4-(2-((4-(((R)-1-(3-Bromophenyl)ethyl)amino)-6-methoxy-2-methyl-quinazolin-7-yl)oxy)ethyl)piperazin-1-yl)ethyl)piperidin-4-yl)-6-fluoro-1-oxoisoindolin-2-yl)piperidine-2,6-dione]	9700	> 10000	8000	3800	5800
COc1cc2c(N[C@H](C)c3cccc(Br)c3)nc(C)nc2cc1OCCCCCCCCC(=O)N1CCC(c2cc(F)cc3c2CN(C2CCC(=O)NC2=O)C3=O)CC1 (stereo partly drawn) [Compound A61, 3-(4-(1-(9-((4-(((R)-1-(3-Bromophenyl)ethyl)amino)-6-methoxy-2-methyl-quinazolin-7-yl)oxy)nonanoyl)piperidin-4-yl)-6-fluoro-1-oxoisoindolin-2-yl)piperidine-2,6-dione]	5200	> 10000	> 10000	5900	6600
COc1cc2c(N[C@@H](C)c3cc(N)cc(C(F)(F)F)c3)nc(C)nc2cc1OCCCCCCCN1CCC(c2cc3c(cc2F)C(=O)N(C2CCC(=O)NC2=O)C3)CC1 (stereo partly drawn) [Compound A68, 3-(5-(1-(7-((4-(((S)-1-(3-Amino-5-(trifluoromethyl)phenyl)ethyl)amino)-6-methoxy-2-methylquinazolin-7-yl)oxy)heptyl)piperidin-4-yl)-6-fluoro-1-oxoisoindolin-2-yl)piperidine-2,6-dione]	530	1500	690	500	630
COc1cc2c(N[C@H](C)c3cccc(Br)c3)nc(C)nc2cc1OCCCCCCCCCCCNc1cccc2nc(C)n(C3CCC(=O)NC3=O)c(=O)c12 (stereo partly drawn) [Compound A46, 3-(5-((11-((4-(((R)-1-(3-Bromophenyl)ethyl)amino)-6-methoxy-2-methyl-quinazolin-7-yl)oxy)undecyl)amino)-2-methyl-4-oxoquinazolin-3(4H)-yl)piperidine-2,6-dione]	720	> 10000	> 10000	2700	990
COc1cc2c(N[C@H](C)c3cccc(Br)c3)nc(C)nc2cc1OCCCCCCN1CCN(CC#Cc2cc3c(cc2F)C(=O)N(C2CCC(=O)NC2=O)C3)CC1 (stereo partly drawn) [Compound A43, 3-(5-(3-(4-(6-((4-(((R)-1-(3-Bromophenyl)ethyl)amino)-6-methoxy-2-methyl-quinazolin-7-yl)oxy)hexyl)piperazin-1-yl)prop-1-yn-1-yl)-6-fluoro-1-oxoisoindolin-2-yl)-piperidine-2,6-dione]	440	830	1300	620	340
COc1cc2c(N[C@H](C)c3cccc(Br)c3)nc(C)nc2cc1OCCCCCCCNc1cccc2nc(C)n(C3CCC(=O)NC3=O)c(=O)c12 (stereo partly drawn) [Compound A47, 3-(5-((7-((4-(((R)-1-(3-Bromophenyl)ethyl)amino)-6-methoxy-2-methyl-quinazolin-7-yl)oxy)heptyl)amino)-2-methyl-4-oxoquinazolin-3(4H)-yl)piperidine-2,6-dione]	740	3700	3000	1400	910
CN[C@@H](C)C(=O)N[C@H](C(=O)N1C[C@@H](NC(=O)CCCCCCCCOc2cc3nc(C)nc(N[C@H](C)c4cccc(Br)c4)c3cc2OC)C[C@H]1C(=O)N[C@@H]1CCCc2ccccc21)C1CCCCC1 [Compound B12, (2S,4S)-4-(9-((4-(((R)-1-(3-Bromophenyl)ethyl)amino)-6-methoxy-2-methyl-quinazolin-7-yl)oxy)nonanamido)-1-((S)-2-cyclohexyl-2-((S)-2-(methylamino)propanamido)-acetyl)-N—((R)-1,2,3,4-tetrahydronaphthalen-1-yl)pyrrolidine-2-carboxamide]	450	2700	1100	460	800
COc1cc2c(N[C@H](C)c3cccc(Br)c3)nc(C)nc2cc1OCCCCCCCCCNc1cccc2nc(C)n(C3CCC(=O)NC3=O)c(=O)c12 (stereo partly drawn) [Compound A45, 3-(5-((9-((4-(((R)-1-(3-Bromophenyl)ethyl)amino)-6-methoxy-2-methyl-quinazolin-7-yl)oxy)nonyl)amino)-2-methyl-4-oxoquinazolin-3(4H)-yl)piperidine-2,6-dione]	900	5200	2300	2000	1200
CN[C@@H](C)C(=O)N[C@H](C(=O)N1CCC[C@H]1c1nc(C(=O)c2cccc(OCCCCCCOc3cc4nc(C)nc(N[C@H](C)c5cccc(Br)c5)c4cc3OC)c2)cs1)C1CCCCC1 [Compound B1, (S)—N—((S)-2-((S)-2-(4-(3-((6-((4-(((R)-1-(3-bromophenyl)ethyl)amino)-6-methoxy-2-methylquinazolin-7-yl)oxy)hexyl)oxy)benzoyl)thiazol-2-yl)pyrrolidin-1-yl)-1-cyclohexyl-2-oxoethyl)-2-(methylamino)propanamide]	980	3000	2400	1100	720
COc1cc2c(N[C@H](C)c3cccc(Br)c3)nc(C)nc2cc1OCCCCN1CCN(C(=O)COc2cc3c(cc2F)C(=O)N(C2CCC(=O)NC2=O)C3)CC1 (stereo partly drawn) [Compound A29, 3-(5-(2-(4-(4-((4-(((R)-1-(3-Bromophenyl)ethyl)amino)-6-methoxy-2-methyl-quinazolin-7-yl)oxy)butyl)piperazin-1-yl)-2-oxoethoxy)-6-fluoro-1-oxoisoindolin-2-yl)-piperidine-2,6-dione]	5700	> 10000	6800	890	730
COc1cc2c(N[C@H](C)c3cccc(Br)c3)nc(C)nc2cc1OCCCCCC(=O)N(C)Cc1scc2c1CN(C1CCC(=O)NC1=O)C2=O (stereo partly drawn) [Compound A63, 6-((4-(((R)-1-(3-Bromophenyl)ethyl)amino)-6-methoxy-2-methylquinazolin-7-yl)oxy)-N-((5-(2,6-dioxopiperidin-3-yl)-4-oxo-5,6-dihydro-4H-thieno[3,4-c]pyrrol-1-yl)methyl)-N-methylhexanamide]	650	3500	130	20	< 14
CN[C@@H](C)C(=O)N[C@H](C(=O)N1CCC[C@H]1c1nc(C(=O)c2cccc(OCCCCCCCCCCOc3cc4nc(C)nc(N[C@H](C)c5cccc(Br)c5)c4cc3OC)c2)cs1)C1CCCCC1 [Compound B3, (S)—N—((S)-2-((S)-2-(4-(3-((10-((4-(((R)-1-(3-Bromophenyl)ethyl)amino)-6-methoxy-2-methylquinazolin-7-yl)oxy)decyl)oxy)benzoyl)thiazol-2-yl)pyrrolidin-1-yl)-1-cyclohexyl-2-oxoethyl)-2-(methylamino)propanamide]	2300	5000	2200	4700	1400
COc1cc2c(N[C@H](C)c3cccc(Br)c3)nc(C)nc2cc1OCCCCCCCCCCCCc1scc2c1CN(C1CCC(=O)NC1=O)C2=O (stereo partly drawn) [Compound A64, 3-(1-(12-((4-(((R)-1-(3-Bromophenyl)ethyl)amino)-6-methoxy-2-methyl-quinazolin-7-yl)oxy)dodecyl)-4-oxo-4H-thieno[3,4-c]pyrrol-5(6H)-yl)piperidine-2,6-dione]	3100	5500	> 10000	1200	2600
